“And” between values parts separate entries of the source, which are not always exact repeats. Equal entries are not always repeated. Where two headings read alike, the source gives them in different places. One block for each compound: values may come before it.
How the values were obtained:
[1] = 1H NMR-pH titration (macroscopic and microscopic pKa); format: physicochemical; conditions: for pKa: H2O/D2O 95:5 (v/v); for predominant protonation/charge form at physiological pH: physiological pH (7.4), from the determined acid-base constants; for pKaC^A (NMR): second step dissociation microconstant of the aromatic ammonium group; for pKaA^C (NMR): second step dissociation microconstant of the carboxyl group
Method: NMR spectra were recorded on a 400 MHz Varian Mercury Plus spectrometer equipped with a 5 mm Varian 400 Automation Triple Resonance Broadband Pulsed Field Gradient probe at 298.15 ± 0.1 K. The solvent was H2O/D2O 95:5 (v/v), the solution contained around 5 mmol/L titrand, and the ionic strength was adjusted to 0.15 mol/L. The pH values were adjusted with 2–5 mol/L HCl or NaOH (in order to avoid substantial dilution of the solution) and determined in situ by internal indicator molecules optimized for ^1H NMR [27, 28]. The sample volume was 500 μL containing DSS (3-(trimethylsilyl)propane-1-sulfonate) as a chemical shift reference. The H2O ^1H signal was suppressed with a WET sequence; the average acquisition parameters for ^1H measurements are number of transients = 8, number of points = 65,536, acquisition time = 3.33 s, and relaxation delay = 1.5 s. All spectra were processed using the MestReNova v9.0.1-13254 (Mestralab Research, S.L., Santiago de Compostela, Spain) software. NMR-pH titrations were performed once, and resulting pKa values are reported with ± standard error of the model fit.
The corollary of this assumption is not so obvious, however: the aliphatic ^1H NMR signals are relatively close to the aromatic amino group (in terms of covalent distance), especially the methylene group (5 covalent distance), therefore selectivity of aliphatic ^1H NMR signals in favor of aliphatic ammonium and carboxyl dissociation is dubious. This, however, can be exploited: the titration curve of the methylene group thus affords all three macroconstants, including Ka1, Ka2 in the acidic region (Equation (1)), while the aromatic and αCH ^1H NMR signals selectively afford the microconstants KaC^A (second step dissociation microconstant of the aromatic ammonium group), KaA^C (second step dissociation microconstant of the carboxyl group) (Equation (2)). […] Note that Equation (2) in its current form applies to the titration curves of the aromatic signals; for the αCH signal, Equation (2) is rewritten with KaC^A and KaA^C exchanged. For the curve fitting of Equation (2), the macroconstants are treated as fixed parameters transferred from the fitting of Equation (1).(1) δobs=δL+δHL·Ka2·10^−pH+δH2L·Ka1·Ka2·10^−2·pH/1+Ka2·10^−pH+Ka1·Ka2·10^−2·pH (2) δobs=δL·1+KaCA·10^−pH+δHL·KaAC·10^−pH+Ka1·Ka2·10^−2·pH/1+Ka2·10^−pH+Ka1·Ka2·10^−2·pH
The remaining dissociation microconstants (Ka^C and Ka^A) were calculated using Equation (3). Modern theoretical considerations of acid-base microconstant determination can be found in the works of Noszál and Borkovec, while some examples can be found in recent works.(3) pKa1+pKa2=pKaA+pKaAC=pKaC+pKaCA
The titration of 3-hydroxykynurenine (Figure 5) was treated the same way as for kynurenine, with the difference that 3-hydroxykynurenine has an overlapping dissociation in the basic pH region as well (the primary aliphatic ammonium dissociation overlaps with the dissociation of the phenol group). The same principle can be applied to the macro- and microconstant determination of kynurenine; only the last two macroconstants were transferred from potentiometric titration data since the latter is more precise than NMR-pH determined values and the chemical shift response of the methylene group towards the phenol dissociation (6 covalent distance) is not expected to be reliable. Otherwise, the microconstants of the basic pH range (KaACN^O—phenol group, KaACO^N—primary aliphatic ammonium group) were determined by fitting an analog (featuring Ka3 and Ka4) of Equation (2) to the titration data of all ^1H NMR signals. Note that the fitted pKaACN^O falls very close to the calculated pKaAC^N; therefore, to ensure a decreasing sequence of Ka values in every microscopic protonation pathway, an additional constraint was used during fitting: pKaACN^O be greater than the mean of pKa3 and pKa4. […]

[2] = pH-potentiometric titration (pKa); format: physicochemical
Method: An ECO automatic titrator (Metrohm AG, Herisau, Switzerland) with a Metrohm 6.0234.110 combined pH glass electrode was used for the potentiometric titrations under automatic PC control. The electrode was calibrated with aqueous standard buffer solutions. Constant temperature (298.15 ± 0.1 K) was provided by a thermostated double-walled glass cell. Difference titrations were carried out in the absence (blank) and presence of the titrand. First, 2 mL of 0.1 mol/L HCl solutions were titrated with 0.1 mol/L KOH. A constant ionic strength of 0.15 mol/L was provided by the presence of KCl. Next, a titrand was added to the same volume of HCl solution and subsequently titrated with KOH. The initial concentration of the titrand was around between 3 and 6 mmol/L in the titrations. Non-linear parameter fitting provided the dissociation constants from the interpolated volume differences. Potentiometric titrations were performed in triplicates, and the resulting pKa values are reported with ± standard error of the three fitted values.

[3] = in vitro parallel permeability assay (PAMPA); format: in vitro ADME; conditions: passive transport only
Method: To further obtain additional information regarding the microspeciation scheme, the synthesis of methyl ester derivatives was attempted since these model compounds could provide the value of microconstants for cases where the carboxylic acid group is undissociated. […] In the first attempt, the compounds were each dissolved with 1-ethyl-3-(3-dimethylaminopropyl)carbodiimide (EDAC) and triethylamine in dichloromethane, and after fifteen minutes, methanol was added to the mixture, which was stirred overnight at room temperature. After this, the solution was washed with saturated sodium bicarbonate solution and distilled water. The organic phase was dried over sodium sulfate and then removed from the rotary evaporator. In the second attempt, the compounds were each dissolved in methanol, and the solution was cooled to 0 °C. Thionyl chloride was added dropwise, and the mixture was stirred at the same temperature for four hours. Then, the solvent was removed from the rotary evaporator, yielding an oily residue. […] The measurement of lipophilicity and membrane penetration of kynurenine and 3-hydroxykynurenine was also attempted; however, due to the extremely low predicted logP value of these compounds, it was not unexpected that obtaining such experimental data would not be feasible. […]

UV-pH titration (pKa) = format: physicochemical; conditions: for pKa: aqueous HCl/NaOH solutions of varying pH
Method: UV spectroscopic measurements were carried out on a Jasco V-550 diode-array spectrometer (Jasco Ltd., Tokyo, Japan) with 10 mm quartz cuvettes at 298 K. The titrand was diluted with an acidic (HCl) and a basic (NaOH) stock solution to the same analyte concentration (adjusting ionic strength to 0.15 mol/L). In the case of kynurenic acid, a saturated acidic solution was diluted 10 times with HCl and NaOH, respectively, to obtain the stock solutions. Sample solutions with varying pH were prepared by mixing the two stock solutions in varying ratios. pH values were read on a Metrohm 2.780.0010 precision pH meter with a 6.0258.600 Unitrode glass Pt 1000 electrode (Metrohm AG, Herisau, Switzerland), and the pH-potentiometric system was calibrated using standard buffer solutions.

[4] = cited from earlier work; for pKa (first value) / pKa (second value): no mention of experimental methods
ROS = test system: ROS; set-up: method as in PMID 21763768; conditions: cited from earlier work
[5] = first step microconstant of the aromatic ammonium group, calculated using Equation (3), read-out: pKa^A
[6] = first step microconstant of the carboxyl group, calculated using Equation (3), read-out: pKa^C
[7] = macroconstant from methylene signal, 298.15 K, ionic strength 0.15 mol/L, read-out: pKa1 (NMR)
[8] = macroconstant from methylene signal, 298.15 K, ionic strength 0.15 mol/L, read-out: pKa2 (NMR)
[9] = aqueous HCl solution with KCl, titrated with KOH, unreliable, since two values could not be fitted, read-out: single pKa fitted in the acidic pH region (pH potentiometry titration)

- pKa [1, 5]: 1.82
- pKa [1, 6]: 1.91
- pKa [1, 7]: 1.56
- pKa [1, 8]: 2.69
- pKaAC^N ([1]; microconstant of the aliphatic ammonium group, phenol still protonated, calculated): 9.08
- pKaAC^O ([1]; microconstant of the phenol group, aliphatic ammonium still protonated, calculated): 8.85
- pKaACN^O (NMR) ([1]; microconstant of the phenol group, basic pH range, fit constrained to exceed mean of pKa3 and pKa4): 9.12
- pKaACO^N (NMR) ([1]; microconstant of the primary aliphatic ammonium group, basic pH range): 9.35
- predominant protonation/charge form at physiological pH [1]: zwitterionic form
- pKaC^A (NMR) [1]: 2.34
- pKaA^C (NMR) [1]: 2.43
- pKa ([2]; aqueous HCl solution with KCl, titrated with KOH, macroconstant, 298.15 K, ionic strength 0.15 mol/L, read-out: pKa3 (potentiometry)): 8.65
- pKa ([2]; aqueous HCl solution with KCl, titrated with KOH, macroconstant, 298.15 K, ionic strength 0.15 mol/L, read-out: pKa4 (potentiometry)): 9.55
- pKa [2, 9]: 2.53 ± 0.03
Structure (SMILES): Nc1c(O)cccc1C(=O)CC(N)C(=O)O (stereo not shown) [3-hydroxykynurenine]

- pKa [1, 5]: 1.39
- pKa [1, 6]: 1.63
- pKa [1, 7]: 1.19
- pKa [1, 8]: 2.49
- pKa ([1]; macroconstant, aliphatic ammonium, 298.15 K, ionic strength 0.15 mol/L, read-out: pKa3 (NMR)): 9.33
- predominant protonation/charge form at physiological pH [1]: zwitterionic form
- pKaC^A (NMR) [1]: 2.05 ± 0.04 and 2.05
- pKaA^C (NMR) [1]: 2.29 ± 0.03 and 2.29
- pKaC^A (UV-pH titration) (UV-pH titration (pKa); second step dissociation microconstant of the aromatic ammonium group): 2.08 ± 0.2
- pKaA^C (UV-pH titration) (UV-pH titration (pKa); second step dissociation microconstant of the carboxyl group): 2.33 ± 0.05
- pKa ([2]; aqueous HCl solution with KCl, titrated with KOH, 298.15 K, ionic strength 0.15 mol/L, read-out: pKa fitted in the basic pH region (pH potentiometry titration)): 9.13 ± 0.02
- pKa [2, 9]: 2.39 ± 0.04
Structure (SMILES): Nc1ccccc1C(=O)C[C@H](N)C(=O)O [kynurenine]
- membrane penetration/retention (PAMPA) [3]: no detectable membrane penetration/retention

- pKa ([1]; ± standard error of fit, 298.15 K, ionic strength 0.15 mol/L, H2O/D2O 95:5, read-out: pKa (NMR-pH titration)): 5.19 ± 0.02
- pH of a further dissociation step indicated by shift of NMR signals ([1]; slight systematic shift below pH 1.5, outside the range of determination): < 1
- pKa ([2]; aqueous HCl solution with KCl, titrated with KOH, triplicate, ± standard error, 298.15 K, ionic strength 0.15 mol/L, read-out: pKa2 (potentiometry)): 5.22 ± 0.01
- pKa ([2]; aqueous HCl solution with KCl, titrated with KOH, extreme acidic pKa of the carboxyl group, rough estimate, single nonlinear curve fit, 298.15 K, ionic strength 0.15 mol/L, read-out: pKa1 (by extrapolation of potentiometry)): ~0.63
- pKa ([2]; aqueous solution, ionic strength 0.15 mol/L, both titration techniques, 298.15 K, ionic strength 0.15 mol/L, read-out: pKa2 (mean of potentiometry and NMR)): ~5.2
- pKa2 (mean of potentiometry and NMR) ([2]; both titration techniques, 298.15 K, ionic strength 0.15 mol/L): 5.21
- pKa1 (by extrapolation of potentiometry) ([2]; extreme acidic pKa of the carboxyl group, rough estimate, single nonlinear curve fit, 298.15 K, ionic strength 0.15 mol/L): ~0.6
Structure (SMILES): O=C(O)c1ccccn1 [picolinic acid]
- pKa (first value) ([4]; ref 25): 1.0
- pKa (second value) ([4]; ref 25): 5.4
- pKa (first value) ([4]; ref 26): 1.07
- pKa (second value) ([4]; ref 26): 5.25

- dissociation step above pH 7 until 13 ([1]; potentiometric and NMR-pH titration attempts): no dissociation step
- pKa (UV-pH titration (pKa); 10-fold diluted saturated solution, 298 K, ionic strength 0.15 mol/L, read-out: pKa (UV-pH titration, full spectrum measurement)): 2.44 ± 0.02
- pKa (UV-pH titration (pKa); single dissociation step, UV-pH titration, 298 K, ionic strength 0.15 mol/L, read-out: pKa1 (UV)): ~2.4
- pKa1 (UV) (UV-pH titration (pKa); single dissociation step, UV-pH titration, 298 K, ionic strength 0.15 mol/L): 2.43
- pKa ([2]; aqueous HCl solution with KCl, titrated with KOH, value is unreliable due to precipitate formation, read-out: pKa fitted (pH potentiometry titration)): 3.1 ± 0.1
- solubility behaviour during titration ([2]; below pH 3, no issue above pH 3): precipitation
Structure (SMILES): O=C(O)c1cc(=O)c2ccccc2[nH]1 [kynurenic acid]
- concentration that can abolish iron(II) sulfate-induced ROS production (ROS): exceeding 100 µM
- pKa of the radical form ([4]; radical form): 5.5
